In general, IC50 refers to the midpoint of a concentration-inhibition curve.

Molecules are shown by their SMILES.

This passage reports IC50 results from patent US11472798B2 (Mission Therapeutics Limited, priority 2014, dated 2022).

The target in the assay is T1, UCHL1 (Homo sapiens, UniProt P09936).
T1 construct: made in house; host or cells: HEK293T
T1 sequence (P09936 1-223): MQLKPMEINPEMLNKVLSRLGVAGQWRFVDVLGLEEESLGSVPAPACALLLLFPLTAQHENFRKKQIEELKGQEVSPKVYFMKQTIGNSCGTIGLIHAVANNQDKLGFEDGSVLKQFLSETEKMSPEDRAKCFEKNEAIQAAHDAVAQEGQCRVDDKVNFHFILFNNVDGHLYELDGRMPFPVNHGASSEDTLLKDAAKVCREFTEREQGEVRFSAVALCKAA
Put plainly: UCHL1 biochemical IC50 assay (fluorescence polarisation). To be noted: 30 min enzyme/compound pre-incubation at room temp, read after 2 hr incubation, read-out: Activity range (UCHL1 biochemical IC50 assay). In short, it runs like this: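 FLAG-UCHL1 purified from transfected HEK293T cells was preincubated 30 min at room temperature with compound (8 points, 100–0.03 μM final) in Tris pH 7.5 buffer with Tween 20, BSA and beta-mercaptoethanol. Reaction started with 50 nM TAMRA-peptide–ubiquitin isopeptide substrate; fluorescence polarisation (ex 540/em 590 nm) read at once and after 2 h.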
(In general: In fluorescence polarisation assays a small probe gives low polarisation when free and higher when bound to something large.)
`C[C@H]1[C@@H](C(=O)Nc2cn([C@@H](C)c3ccccc3)cn2)CCN1C#N` [Example 172, (2S,3S)-1-cyano-2-methyl-N-(1-((S)-1-phenylethyl)-1H-imidazol-4-yl)pyrrolidine-3-carboxamide]: the IC50 was 1000 to 10000 nM.
With `Cc1nc(NC(=O)[C@H]2CCN(C#N)C2)sc1CN1CCOCC1` [Example 65, (S)-1-cyano-N-(4-methyl-5-(morpholinomethyl)thiazol-2-yl)pyrrolidine-3-carboxamide] the figure was less than 1000 nM; with `Cc1noc(C)c1-c1cc2sc(NC(=O)[C@H]3CCN(C#N)C3)nc2cn1` [Example 296, (S)-1-cyano-N-(6-(3,5-dimethylisoxazol-4-yl)thiazolo[4,5-c]pyridin-2-yl)pyrrolidine-3-carboxamide], 10000 to 30000 nM; with `C#Cc1ccc(-c2cnc(NC(=O)[C@H]3CCN(C#N)C3)s2)cc1` [Example 205, (S)-1-cyano-N-(5-(4-ethynylphenyl)thiazol-2-yl)pyrrolidine-3-carboxamide], less than 1000 nM.
With `N#Cc1ccc(-n2cnc(NC(=O)[C@H]3CCN(C#N)C3)c2)cc1OCCCN1CCOCC1` [Example 245, (S)-1-cyano-N-(1-(4-cyano-3-(3-morpholinopropoxy)phenyl)-1H-imidazol-4-yl)pyrrolidine-3-carboxamide] the figure was less than 1000 nM; with `N#CN1CC[C@H](C(=O)Nc2cc(-c3ccccc3)ccn2)C1` [Example 268, (S)-1-cyano-N-(4-phenylpyridin-2-yl)pyrrolidine-3-carboxamide], 1000 to 10000 nM.
The value for `N#CN1CC[C@H](C(=O)Nc2cn(C3CCCN(Cc4ccccc4)C3)cn2)C1` (stereo partly drawn) [Example 186, (3S)—N-(1-(1-benzylpiperidin-3-yl)-1H-imidazol-4-yl)-1-cyanopyrrolidine-3-carboxamide] was less than 1000 nM; that for `N#Cc1ccc(-n2cnc(NC(=O)[C@H]3CCN(C#N)C3)c2)cc1OC(F)(F)F` [Example 310, (S)-1-cyano-N-(1-(4-cyano-3-(trifluoromethoxy)phenyl)-1H-imidazol-4-yl)pyrrolidine-3-carboxamide] was less than 1000 nM; that for `N#CN1C[C@@H](C(F)(F)F)[C@H](C(=O)Nc2ncc(-c3ccccc3)s2)C1` [Example 281, (3S, 4S)-1-cyano-N-(5-phenylthiazol-2-yl)-4-(trifluoromethyl)pyrrolidine-3-carboxamide] was less than 1000 nM.
Turning to `CNC(=O)c1ccc(-c2cnc(NC(=O)[C@H]3CCN(C#N)C3)s2)cc1` [Example 64, (S)-1-cyano-N-(5-(4-(methyl-carbamoyl)phenyl)thiazol-2-yl)pyrrolidine-3-carboxamide], the IC50 was less than 1000 nM.
The value for `N#CN1CCC(C(=O)Nc2nc3ccc(C4CC4)cc3s2)C1` (centres unmarked) [Example 130, 1-cyan-N-(6-cyclopropylbenzo[d]thiazol-2-yl)pyrrolidine-3-carboxamide] was less than 1000 nM.
The value for `CC1CC(C(=O)Nc2cn(-c3ccccc3)cn2)CN1C#N` (mixture of isomers) [Example 89, I-cyano-5-methyl-N-(1-phenyl-1H-imidazol-4-yl)pyrrolidine-3-carboxamide] was 10000 to 30000 nM; that for `N#Cc1ccc(O[C@H]2CCOC2)cc1-n1cnc(NC(=O)[C@H]2CCN(C#N)C2)c1` [Example 248, (S)-1-cyano-N-(1-(2-cyano-5-(((S)-tetrahydrofuran-3-yl)oxy)phenyl)-1H-imidazol-4-yl)pyrrolidine-3-carboxamide] was 1000 to 10000 nM; that for `N#CN1CCC(C(=O)Nc2ncc(-c3ccc(N)cc3)s2)C1` (centres unmarked) [Example 111, N-(5-(4-aminophenyl)thiazol-2-yl)-1-cyanopyrrolidine-3-carboxamide] was less than 1000 nM.
On to `COC[C@@H]1CCCN1Cc1cnc(NC(=O)[C@H]2CCN(C#N)C2)s1` [Example 144, (S)-1-cyano-N-(5-(((S)-2-(methoxymethyl)pyrrolidin-1-yl)methyl)thiazol-2-yl)pyrrolidine-3-carboxamide], for which the IC50 was in the range of 1000 to 10000 nM.
The value for `N#CN1CCC(C(=O)Nc2cnc(-c3ccccc3)s2)C1` (centres unmarked) [Example 10, 1-cyano-N-(2-phenylthiazol-5-yl)pyrrolidine-3-carboxamide] was 10000 to 30000 nM; that for `N#CN1CC[C@H](C(=O)Nc2ncc(-c3cccc(-n4ccnc4)c3)s2)C1` [Example 216, (S)-N-(5-(3-(1H-imidazol-1-yl)phenyl)thiazol-2-yl)-1-cyanopyrrolidine-3-carboxamide] was less than 1000 nM; that for `Cn1cc(-c2ccnc(NC(=O)[C@H]3CCN(C#N)C3)c2)cn1` [Example 211, (S)-1-cyano-N-(4-(1-methyl-1H-pyrazol-4-yl)pyridin-2-yl)pyrrolidine-3-carboxamide] was 1000 to 10000 nM.
The value for `N#Cc1ccc(-c2cnc(NC(=O)[C@H]3CCN(C#N)C3)s2)cc1` [Example 118, (S)-1-cyano-N-(5-(4-cyanophenyl)thiazol-2-yl)pyrrolidine-3-carboxamide] was less than 1000 nM; that for `N#CN1CC[C@H](C(=O)Nc2ncc(-c3ccncc3)s2)C1` [Example 69, (S)-1-cyano-N-(5-(pyridin-4-yl)thiazol-2-yl)pyrrolidine-3-carboxamide] was less than 1000 nM.
The value for `COCCn1ncc2cc(-c3cnc(NC(=O)[C@H]4CCN(C#N)C4)s3)ccc21` [Example 227, (S)-1-cyano-N-(5-(1-(2-methoxyethyl)-1H-indazol-5-yl)thiazol-2-yl)pyrrolidine-3-carboxamide] was less than 1000 nM; that for `C[C@@H]1CN(C#N)C[C@H]1C(=O)Nc1cn(-c2ccccc2)cn1` [Example 85, (f)-1-cyano-4-methyl-N-(1-phenyl-1H-imidazol-4-yl)pyrrolidine-3-carboxamide] was 1000 to 10000 nM.
Regarding `N#CN1CCC(C(=O)Nc2nc3ccc(C(F)(F)F)cc3s2)C1` (centres unmarked) [Example 20, 1-cyano-N-(6-(trifluoro-methyl)benzo[d]thiazol-2-yl)pyrrolidine-3-carboxamide], the IC50 was 1000 to 10000 nM.
With `N#CN1CCC(C(=O)Nc2ccc(-n3ccnc3)cn2)C1` (centres unmarked) [Example 30, N-(5-(1H-imidazol-1-yl)pyridin-2-yl)-1-cyano-pyrrolidine-3-carboxamide] the figure was 10000 to 30000 nM; with `N#CN1CCC(C(=O)Nc2ccc(-c3cccnc3)cn2)C1` (centres unmarked) [Example 33, N-([3,3′-bipyridin]-6-yl)-1-cyano-pyrrolidine-3-carboxamide], 1000 to 10000 nM; with `CC(c1ccccc1)N(C)S(=O)(=O)c1ccc(NC(=O)[C@H]2CCN(C#N)C2)nc1` (stereo partly drawn) [Example 208, (3S)-1-cyano-N-(5-(N-methyl-N-(1-phenylethyl)sulfamoyl)pyridin-2-yl)pyrrolidine-3-carboxamide], less than 1000 nM.
For `C[C@@H](c1ccccc1)n1cnc(NC(=O)[C@H]2CCN(C#N)C2)c1` [Example 166, (S)-1-cyano-N-(1-((S)-1-phenylethyl)-1H-imidazol-4-yl)pyrrolidine-3-carboxamide], the 50% inhibitory concentration (IC50) was less than 1000 nM.
With `N#CN1CCC(C(=O)Nc2nc3ccccc3s2)C1` (centres unmarked) [Example 18, N-(benzo[d]thiazol-2-yl)-1-cyano-pyrrolidine-3-carboxamide] the figure was 1000 to 10000 nM; with `N#CN1CCC(C(=O)Nc2ncc(-c3ccccc3N)s2)C1` (centres unmarked) [Example 109, N-(5-(2-aminophenyl)thiazol-2-yl)-1-cyanopyrrolidine-3-carboxamide], 1000 to 10000 nM; with `C#Cc1ccc2cnc(NC(=O)[C@H]3CCN(C#N)C3)cc2c1` [Example 263, (S)-1-cyano-N-(6-ethynylisoquinolin-3-yl)pyrrolidine-3-carboxamide], 1000 to 10000 nM.
Regarding `CCNC(=O)c1cccc(-c2cnc(NC(=O)[C@H]3CCN(C#N)C3)s2)c1` [Example 234, (S)-1-cyano-N-(5-(3-(ethylcarbamoyl)phenyl)thiazol-2-yl)pyrrolidine-3-carboxamide], the IC50 was less than 1000 nM.
Take `Cc1cc(-n2cnc(NC(=O)[C@H]3CCN(C#N)C3)c2)ccc1C#N` [Example 308, (S)-1-cyano-N--(1-(4-cyano-3-methylphenyl)-1H-imidazol-4-yl)pyrrolidine-3-carboxamide]: the IC50 was less than 1000 nM.
The value for `Cc1ccccc1-c1ccc(NC(=O)C2CCN(C#N)C2)nc1` (centres unmarked) [Example 136, 1-cyano-N-(5-(o-tolyl)pyridin-2-yl)pyrrolidine-3-carboxamide] was 1000 to 10000 nM; that for `N#Cc1ccc(OCCCN2CCOCC2)cc1-n1cnc(NC(=O)[C@H]2CCN(C#N)C2)c1` [Example 246, (S)-1-cyano-N-(1-(2-cyano-5-(3-morpholinopropoxy)phenyl)-1H-imidazol-4-yl)pyrrolidine-3-carboxamide] was less than 1000 nM; that for `Cc1noc(C)c1-c1ccc2nc(NC(=O)[C@H]3CCN(C#N)[C@H]3C)sc2c1` [Example 133, (2S,3S)-1-cyano-N-(6-(3,5-dimethylisoxazol-4-yl)benzo[d]thiazol-2-yl)-2-methyl-pyrrolidine-3-carboxamide] was less than 1000 nM.
The value for `Cc1noc(C)c1-c1ccc2nc(NC(=O)[C@H]3CCN(C#N)C3)sc2c1` [Example 120, (S)-1-cyano-N-(6-(3,5-dimethylisoxazol-4-yl)benzo[d]thiazol-2-yl)pyrrolidine-3-carboxamide] was less than 1000 nM; that for `N#CN1CC[C@H](C(=O)Nc2cn(C3CCCCC3)cn2)C1` [Example 162, (S)-1-cyano-N-(1-cyclohexyl-1H-imidazol-4-yl)pyrrolidine-3-carboxamide] was less than 1000 nM.
With `Cn1nccc1-c1ccc2nc(NC(=O)[C@H]3CCN(C#N)C3)sc2c1` [Example 123, (S)-1-cyano-N-(6-(1-methyl-1H-pyrazol-5-yl)benzo[d]thiazol-2-yl)pyrrolidine-3-carboxamide] the figure was less than 1000 nM.
